How the values were obtained:
[1] = target: T1, ZIKV NS2B-NS3pro (Zika virus, UniProt A0A024B7W1); test: Fluorescent proteinase activity assay (Pyr-RTKR-AMC cleavage); assay type: biochemical
T1 construct: hydrophilic cytoplasmic portion of NS2B (residues 48-94) was linked to the NS3 protease domain; was linked to the NS3 protease domain via a 9-residue linker L; His tag (N, cleaved yes); made in house; host or cells: E. coli BL21 (DE3) Codon Plus
Procedure: Fluorescent proteinase activity assay and IC50 determination. The peptide cleavage activity assays with purified ZIKV NS2B-NS3pro polypeptides were performed in 0.2 ml TBS containing 20% glycerol and 0.005% Brij 35 containing 20 μM of the cleavage peptide pyroglutamic acid Pyr-Arg-Thr-Lys-Arg-7-amino-4-methylcoumarin (Pyr-RTKR-AMC) and 10 nM enzyme. The reaction velocity was monitored continuously at λex=360 nm and λem=465 nm on a Tecan fluorescence spectrophotometer (Männedorf, Switzerland). To determine the IC50 values of the inhibitory compounds, ZIKV NS2B-NS3pro constructs (20 nM) were preincubated for 30 min at 20° C. with various concentrations of compounds in 0.1 ml TBS containing 20% glycerol and 0.005% Brij 35. Pyr-RTKR-AMC substrate (20 μM) was then added in 0.1 ml of the same buffer. IC50 values were calculated by determining the compound concentration required to obtain 50% of the maximal inhibition of NS2B-NS3pro activity against Pyr-RTKR-AMC. GraphPad Prism was used as fitting software. All assays were performed in triplicate in 96-well plates.
Fluorogenic substrate cleavage assays were performed to test whether binding of RNA interferes with the proteolytic activity of NS2B-NS3pro.

[2] = target: T1, ZIKV NS2B-NS3pro; test: Inhibition of ssRNA binding to NS2B-NS3pro by inhibitors (RNA FP assay)
Excerpt: The DNA constructs were cloned into pGEX6P1 plasmid using BamH1 and EcoR1 cleavage sites, resulting in fusion of a GST tag at the N-terminus of the NS2B cofactor. E. coli were transformed with the individual recombinant constructs, and protein production was induced and the cells were disrupted as described above. The supernatant fraction containing the GST-tagged constructs were loaded onto Protino Glutathione Agarose 4B beads and impurities were removed by washing with TBS. To cleave the GST tag from the viral protease, the beads were co-incubated with 3C protease. The NS2B-NS3pro constructs were then additionally purified by gel filtration on an S200 26/60 column equilibrated with TBS. Purity of the purified construct was analyzed using SDS-PAGE followed by Coomassie staining. Purified protease was concentrated to approximately 10 mg/ml using 10 kDa-cutoff concentrators, flash frozen in small aliquots, and stored at −80° C. […]
Fluorescence polarization assay of RNA/ssDNA binding to ZIKV NS2B-NS3 protease. Binding between purified recombinant ZIKV NS2B-NS3pro constructs and either RNA or ssDNA was assessed using a fluorescence polarization (FP) assay conducted in 0.1 ml of TBS containing 1 mM MgCl2 at 25° C. for 1 h. […] Polarization was monitored on a Bruker Daltonics fluorescence spectrophotometer. […]

[3] = target: T2, WNV NS2B-NS3pro (West Nile virus, UniProt P06935); test: Inhibition of NS2B-NS3pro proteolysis, WNV; assay type: biochemical; conditions: in vitro
T2 construct: comprises an NS2B polypeptide that associates with a proteolytic N-terminal fragment of NS3 polypeptide (NS3pro); a proteolytic N-terminal fragment of NS3 polypeptide (NS3pro) to form NS2B-NS3pro
T2 sequence (P06935 1371-1501): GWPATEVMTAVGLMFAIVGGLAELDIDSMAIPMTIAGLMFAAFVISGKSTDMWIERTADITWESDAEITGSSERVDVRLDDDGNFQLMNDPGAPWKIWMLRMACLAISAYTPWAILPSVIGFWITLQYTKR
T2 sequence (P06935 1502-1679): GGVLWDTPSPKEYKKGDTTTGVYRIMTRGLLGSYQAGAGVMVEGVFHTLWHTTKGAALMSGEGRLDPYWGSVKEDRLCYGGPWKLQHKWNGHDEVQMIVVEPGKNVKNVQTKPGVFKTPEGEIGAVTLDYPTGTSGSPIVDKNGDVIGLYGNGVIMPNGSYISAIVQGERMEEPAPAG
Excerpt: (§1) The open conformation of NS2B-NS3pro is formed by rearrangement/dissociation of the NS2B cofactor from the C-terminal half of NS3pro, leading to a loss of proteolytic activity. NS2B dissociation uncovers a hydrophobic cleft in NS3pro, which presents a druggable pocket that is relatively conserved between the flaviviruses. Allosteric inhibitors of ZIKV, WNV, and DENV2 NS2B-NS3pro were designed in silico to bind a region of NS2B-NS3pro distant from the proteolytic active site. […] RNA binding to ZIKV NS2B-NS3pro was tested with a sub-library of these inhibitors, and some compounds were potent inhibitors of RNA binding to ZIKV NS2B-NS3pro, as depicted in FIG. 7. In Top of FIG. 7, small molecule allosteric inhibitors (10 μM) targeting open/super-open conformations of ZIKV NS2B-NS3pro block ssRNA binding. Fluorescent polarization (%) using FAM labeled ssRNA (20 poly-rU). * p<0.05, […], *** p<0.0005, […] by two-tailed unpaired t-test with Welch's correction. In Bottom of FIG. 7, IC50 for inhibition of ZIKV, WNV, and DENV2 NS2B-NS3pro proteolysis by the indicated inhibitors. […] NSC86314 was previously shown to inhibit WNV and DENV2 replicons in cell-based assays with IC50 values of<50 μM. […]

[4] = target: T3, DENV2 NS2B-NS3pro (Dengue virus type 2, UniProt P29990); test: Inhibition of NS2B-NS3pro proteolysis, DENV2; assay type: biochemical; conditions: in vitro
T3 construct: comprises an NS2B polypeptide that associates with a proteolytic N-terminal fragment of NS3 polypeptide (NS3pro); a proteolytic N-terminal fragment of NS3 polypeptide (NS3pro) to form NS2B-NS3pro
T3 sequence (P29990 1346-1475): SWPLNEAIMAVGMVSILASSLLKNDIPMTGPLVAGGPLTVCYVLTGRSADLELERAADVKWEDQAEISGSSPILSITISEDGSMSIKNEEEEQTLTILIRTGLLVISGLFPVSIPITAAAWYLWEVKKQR
T3 sequence (P29990 1476-1653): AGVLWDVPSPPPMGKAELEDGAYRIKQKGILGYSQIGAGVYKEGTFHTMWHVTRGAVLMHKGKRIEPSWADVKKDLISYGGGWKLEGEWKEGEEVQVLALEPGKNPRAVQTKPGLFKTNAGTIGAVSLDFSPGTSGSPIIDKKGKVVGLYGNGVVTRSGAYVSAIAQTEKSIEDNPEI
Excerpt: as §1

[5] = system: WNV replicons; conditions: cell-based assays, previously shown; cited from earlier work
[6] = system: DENV2 replicons; conditions: cell-based assays, previously shown; cited from earlier work

T1 sequence (A0A024B7W1 1503-1680): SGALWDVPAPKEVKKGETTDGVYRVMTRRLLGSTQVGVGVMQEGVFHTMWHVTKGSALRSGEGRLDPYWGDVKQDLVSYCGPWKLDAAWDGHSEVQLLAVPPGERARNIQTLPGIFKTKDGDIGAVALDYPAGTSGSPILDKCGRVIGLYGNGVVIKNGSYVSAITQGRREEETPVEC
T1 sequence (A0A024B7W1 1420-1466): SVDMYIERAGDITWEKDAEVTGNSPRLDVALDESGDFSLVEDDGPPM

In the case of O=C(O)c1cc(/N=N/c2ccc(S(=O)(=O)Nc3nccs3)cc2)ccc1O [NSC114428], the “Inhibition of proteolytic activity of ZIKV protease” value ([1]; FIG. 7) is reported as “low μM range” and the “Inhibition of RNA binding” value ([2]; FIG. 7) is reported as “low μM range”.
In the case of aprotinin, the “RNA binding to purified NS2B-NS3pro-inhibitor complex” value ([2]; closed conformation induced by substrate-mimicking inhibitor) is reported as “no RNA binding”.
With Nc1cc(N)c(N=Nc2ccc(S(=O)(=O)Nc3nccs3)cc2)cc1N=Nc1ccc(S(=O)(=O)Nc2nccs2)cc1 [NSC86314] the “IC50, NS2B-NS3pro from ZIKV” value ([1]; in vitro) was “low to sub-micromolar”, the “IC50, NS2B-NS3pro from WNV” value [3] was “low to sub-micromolar” and the “IC50, NS2B-NS3pro from DENV” value [4] was “low to sub-micromolar”. For the same molecule, the IC50 [5] was under 50 µM and the IC50 [6] was under 50 µM.

From US20240166726A1, “UNIVERSAL TARGETING STRATEGY TO INHIBIT REPLICATION OF ZIKV AND FLAVIVIRUSES” (Sanford Burnham Prebys Medical Discovery Institute, priority 2022, published 2024)
